“Also recorded” adds a separate entry of the source.
Tests used:
[1] = tested on: STAT3 phosphorylation; test: STAT3 phosphorylation in LPS-stimulated macrophages (flow cytometry); format: cell-based, human; details: compound 1 h, then LPS 3 h; control MFI 49
Experimental: To gain an insight into the signaling induced by the tested compounds, ERK1/2 and STAT3 phosphorylation was checked. Macrophages were treated with tested compounds for 1 h, after which they were stimulated with LPS for 3 h.
(§1) Peripheral blood mononuclear cells (PBMCs) were separated by Ficoll-Paque PLUS density gradient centrifugation. PBMCs were placed in a sterile Petri dish and incubated at 37 °C for 2 h. Unattached cells were then removed by washing with PBS and substituted with fresh complete RPMI 1640 medium. To generate monocyte-derived macrophages (MDMs), 50 ng/mL GM-CSF was added to the isolated monocytes and cultured for 6 days to differentiate them into non-polarized MDMs.
Figure 5 Effects of the analyzed compounds on signaling pathways in LPS-stimulated macrophages. Cells were treated with PNU 282987, hypaphorine, or 6-iodohypaphorine methyl ester (6ID) for 1 h and then stimulated with LPS for 3 h. Phosphorylated ERK1/2 and STAT3 were quantified by flow cytometry with specific antibodies. […] (c): Representative histogram showing the increase in ERK 1/2 phosphorylation in comparison to control. The numbers in the histograms show the MFI ± SD (n = 3). MFI—geometrical mean fluorescence intensity. One-way ANOVA tests with Tukey post hoc test: * p ˂ 0.05, ** p ˂ 0.01, *** p < 0.001 in comparison with untreated cells. TEXT PRINTED IN THE PICTURE: (c) Control: PE-ERK 1/2 Phospho: 193.7±1.5 | (c) PNU 282987: PE-ERK 1/2 Phospho: 251.3±13.7 | (c) Hy: PE-ERK 1/2 Phospho: 246.0±15.7 | (c) 6ID: PE-ERK 1/2 Phospho: 273.7±8.1 DOUBTS OF THE COPYIST ABOUT THIS PICTURE: Panel c: no measure or unit is printed beside the numbers; the x-axis label "PE-ERK 1/2 Phospho" is used as the measure / "Control" is the untreated reference rather than a substance; it is included because a value is printed with it

[2] = tested on: TLR4 expression on macrophages; test: Flow cytometry of TLR4 receptor on macrophages; format: cell-based, human; details: 48 h incubation
Experimental: The effect of the above-listed compounds on the expression of the TLR4 receptor and the CD86 protein was studied by flow cytometry after 48 h incubation with macrophages. The interaction of bacterial endotoxins with the TLR4 receptor is known to activate the expression of several pro-inflammatory cytokine genes, while the co-stimulatory molecule CD86 plays an important role in […] inflammatory responses. A decrease in the expression of the TLR4 receptor was observed under the action of all tested compounds (Figure 4c,e), the rank order of these TLR4-suppressing effects was as follows: hypaphorine (14%) < PNU 282,987 (21%) < 6ID (31%).
as §1
(§2) Figure 4 The effects of PNU 282987, hypaphorine, and D-6-iodohypaphorine methyl ester (6ID) on macrophage membrane proteins expression. Cells were treated with these compounds for 48 h and then analyzed by flow cytometry. PNU 282,987 led to an increase in the (a) CD11b and (b) CD11c expression. (c): All tested compounds led to a decrease in TLR4 expression. (d): Macrophages stimulation with hypaphorine and 6ID promoted an increase in CD86 expression. Results obtained in three independent experiments on macrophages from different donors and presented as mean ± SD. One-way ANOVA tests with Tukey post hoc test: * p ˂0.05, ** p ˂ 0.01, **** p < 0.0001 in comparison with untreated cells.

[3] = tested on: CD11c expression on macrophages; test: Flow cytometry of macrophage membrane protein CD11c; format: cell-based, human; details: 48 h
Experimental: The selective agonist PNU 282,987 increased CD11b and CD11c protein expression by an average of 10% and 26%, respectively (Figure 4a,b).
as §1, §2

[4] = tested on: carrageenan-induced inflammation; test: Carrageenan-induced inflammation test; format: in vivo, ICR mice; details: for oedema (paw diameter): 0.5 mg/kg (hypaphorine and 6ID also 1 mg/kg); for analgesia in von Frey test: versus vehicle
Experimental: Subplantar 1% carrageenan injections in a volume of 30 μL into the right hind paw were carried out to generate an inflammation model in mice. The paw volume was measured beforehand using an electronic calliper. The maximum effect of the introduction of carrageenan was observed after 3 h. […] The control group was treated with saline (0.9% NaCl). Two hours after the drug administration (total 3 h from carrageenan injection), the size of the pad of the right hind paw was measured, the von Frey test and paw pressure analgesimeter pain sensitivity assessment were performed.
Carrageenan inflammation was induced by injecting 30 μL of a 1% carrageenan suspension (Sigma-Aldrich, lot #SLBK3896V) into the subplantar surface of the ICR mice hind paw. The oedema degree of the carrageenan-induced paw was evaluated using an electronic calliper by the volume difference of the animal’s right hind paw after (3 h from carrageenan injection) and before being hurt by carrageenan.
[…] The control group was treated with saline (0.9% NaCl).
Antinociceptive testing was performed 2 h after the drug administration (3 h after carrageenan injection).
Nociceptive testing was performed by utilizing the von Frey test and Paw pressure test.
The animals were placed in 20 cm × 20 cm Plexiglas boxes equipped with a metallic mesh floor. Animals were allowed to habituate themselves to their environment for 15 min before the test. […] The paw sensitivity threshold was defined as the minimum force required to elicit a robust and immediate withdrawal reflex of the paw. Spontaneous movements associated with locomotion were not considered as a withdrawal response. Measurements were repeated 3 times and the final value was obtained by averaging the 3 measurements.
Mechanical hyperalgesia was measured as a paw withdrawal response to a gradual increase of mechanical pressure applied by the Rodent pinchers—analgesia meter (model BIO-RP-M; BioSeb, Vitrolles, France). The influence of stimulation on each hind paw was recorded three times. The maximum force applied to the paw was recorded as the grams (g) of force on the dynamometer.

[5] = molecular target: T1, human α3-containing nAChRs (Homo sapiens, UniProt P32297); test: Calcium imaging of α3-containing nAChRs in SH-SY5Y cells (nicotine-induced calcium rise); format: cell-based
T1 construct: endogenous in cells; host or cells: human neuroblastoma SH-SY5Y
T1 sequence (P32297 32-505): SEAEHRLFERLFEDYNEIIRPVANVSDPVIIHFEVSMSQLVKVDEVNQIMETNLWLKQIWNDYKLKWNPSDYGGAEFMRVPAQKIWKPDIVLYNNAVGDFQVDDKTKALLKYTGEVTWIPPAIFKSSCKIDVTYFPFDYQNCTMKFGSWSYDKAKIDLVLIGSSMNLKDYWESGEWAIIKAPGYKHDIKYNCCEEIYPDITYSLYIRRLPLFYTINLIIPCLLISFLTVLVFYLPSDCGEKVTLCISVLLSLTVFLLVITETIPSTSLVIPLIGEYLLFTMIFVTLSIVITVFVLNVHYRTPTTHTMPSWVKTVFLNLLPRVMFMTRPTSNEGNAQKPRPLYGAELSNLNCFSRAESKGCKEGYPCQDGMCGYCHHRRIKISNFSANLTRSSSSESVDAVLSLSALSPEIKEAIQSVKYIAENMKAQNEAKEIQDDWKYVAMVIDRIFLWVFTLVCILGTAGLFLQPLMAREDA
Experimental: Two of the studied compounds with high and medium agonist potency for α7 nAChR (6CF and 6ID, Table 1) were tested for activity toward α3* nAChR by calcium imaging.
Normalized data are presented as mean ± standard error. n = 6–7.

SMILES	STAT3 phosphorylation, MFI [1]	decrease in the expression of the TLR4 receptor [2] [%]	increase in CD11c protein expression ([3]; listed as 6ID)	oedema (paw diameter) ([4]; mice, 2 h after drug, listed as 6ID)	analgesia in von Frey test ([4]; mice, 2 h after drug)	carrageenan-induced allodynia and hyperalgesia ([4]; rodents, doses 0.1 and 0.5 mg/kg)	agonism on α3* nAChR (calcium response) ([5]; compound alone, listed as 6ID)	IC50 ([5]; inhibition of nicotine (100 μM)-induced calcium rise) [µM]	oedema (paw diameter) ([4]; mice, 2 h after drug, listed as 6ND)	increase in CD11c protein expression [3]	analgesia in paw pressure test (mechanical hyperalgesia) ([4]; mice, 2 h after drug)	oedema (paw diameter) ([4]; mice, 2 h after drug)	oedema (paw diameter) ([4]; mice, 2 h after drug, listed as synthetic hypaphorine)
COC(=O)[C@@H](Cc1c[nH]c2cc(I)ccc12)[N+](C)(C)C [Compound 1, (D)-6-iodohypaphorine methyl ester]	58	31	not statistically significant; also recorded: but not 6ID or hypaphorine, leads to a significant increase	marked decrease in paw diameter at doses 0.5 and 1 mg/kg	significant analgesia	decreased carrageenan-induced allodynia and hyperalgesia	does not evoke noticeable calcium response in range of 3–30 μM; also recorded: Neither 6ID, which was most active agonist of α7 nAChR, nor 6CF showed detectable agonism on α3* nAChR at concentrations up to 30 µM	4.4 ± 1					
COC(=O)C(Cc1c[nH]c2cc([N+](=O)[O-])ccc12)[N+](C)(C)C (centres unmarked) [Compound 5, methyl ester of 6-nitrohypaphorine]					significant analgesia				moderate anti-oedemic effect at a dose of 0.5 mg/kg				
C[N+](C)(C)[C@H](Cc1c[nH]c2ccccc12)C(=O)[O-] [Compound 16, L-hypaphorine, reference compound]	increase in the phosphorylation	14			significant analgesia					but not 6ID or hypaphorine, leads to a significant increase	strong evidence of analgesia in algesimeter and von Frey tests	only a tendency to decrease oedema, not statistically significant	No significant effect

From paper PMC10305119, “Analogs of 6-Bromohypaphorine with Increased Agonist Potency for α7 Nicotinic Receptor as Anti-Inflammatory Analgesic Agents” (Marine Drugs, 2023)
